# Measured values taken from PMC5218480 (PLoS ONE, 2017).
# Test system: MV-4-11 cells
# Experiment: Gene expression microarray analysis (Affymetrix PrimeView) and GSEA
# Format: cell-based, human
# Design: RFU PODN (11730768_x_at) / Fold change /veh PODN (11730768_x_at) / RFU LINC00158 (11744669_a_at) / Fold change /veh LINC00158 (11744669_a_at) / RFU DUSP10 (11751237_a_at) / Fold change /veh DUSP10 (11751237_a_at) / RFU ID3 (11757404_x_at) / Fold change /veh ID3 (11757404_x_at) / RFU PLEKHG5 (11737974_s_at) / Fold change /veh PLEKHG5 (11737974_s_at) / RFU LRRC4B (11730491_at) / Fold change /veh LRRC4B (11730491_at) / RFU GIMAP4 (11747438_a_at) / Fold change /veh GIMAP4 (11747438_a_at) / RFU KRT8 (11758183_x_at) / Fold change /veh KRT8 (11758183_x_at) / RFU CNN1 (11734310_a_at) / Fold change /veh CNN1 (11734310_a_at) / RFU VPS37D (11726825_at) / Fold change /veh VPS37D (11726825_at) / RFU C10orf10 (11716522_x_at) / Fold change /veh C10orf10 (11716522_x_at) / RFU KIR2DL2 /// KIR2DL4 /// KIR2DL5A /// KIR2DL5B /// KIR2DS1 /// KIR2DS2 /// KIR2DS3 /// KIR2DS4 /// KIR3DL3 /// KIR3DL3 /// KIR3DS1 (11738374_at) / Fold change /veh KIR2DL2 /// KIR2DL4 /// KIR2DL5A /// KIR2DL5B /// KIR2DS1 /// KIR2DS2 /// KIR2DS3 /// KIR2DS4 /// KIR3DL3 /// KIR3DL3 /// KIR3DS1 (11738374_at) / RFU C1QL1 (11718748_at) / Fold change /veh C1QL1 (11718748_at) / RFU TMPRSS4 (11747572_a_at) / Fold change /veh TMPRSS4 (11747572_a_at) / RFU HAMP (11756126_x_at) / Fold change /veh HAMP (11756126_x_at) / RFU RNFT2 (11725882_a_at) / Fold change /veh RNFT2 (11725882_a_at) / RFU NR4A2 (11747474_a_at) / Fold change /veh NR4A2 (11747474_a_at) / RFU ABCC12 (11746883_a_at) / Fold change /veh ABCC12 (11746883_a_at) / RFU TMEM136 (11760407_x_at) / Fold change /veh TMEM136 (11760407_x_at) / RFU CLDN22 /// WWC2 (11732394_at) / Fold change /veh CLDN22 /// WWC2 (11732394_at) / RFU HLA-DPB1 (11760878_x_at) / Fold change /veh HLA-DPB1 (11760878_x_at) / RFU SPINT1 (11716480_a_at) / Fold change /veh SPINT1 (11716480_a_at) / RFU GAP43 (11754022_s_at) / Fold change /veh GAP43 (11754022_s_at) / RFU A4GNT (11735810_at) / Fold change /veh A4GNT (11735810_at) / RFU PRB3 (11715151_x_at) / Fold change /veh PRB3 (11715151_x_at) / RFU TUBB4B (11761932_at) / Fold change /veh TUBB4B (11761932_at) / RFU CAPN14 (11732068_a_at) / Fold change /veh CAPN14 (11732068_a_at) / RFU TMCC2 (11721928_a_at) / Fold change /veh TMCC2 (11721928_a_at) / RFU IRGQ (11745062_a_at) / Fold change /veh IRGQ (11745062_a_at) / RFU FAM174B (11720279_a_at) / Fold change /veh FAM174B (11720279_a_at) / RFU TMPRSS4 (11748680_a_at) / Fold change /veh TMPRSS4 (11748680_a_at) / RFU FAM212B (11763350_a_at) / Fold change /veh FAM212B (11763350_a_at) / RFU PLEKHG5 (11743358_a_at) / Fold change /veh PLEKHG5 (11743358_a_at) / RFU ZSCAN30 (11745921_a_at) / Fold change /veh ZSCAN30 (11745921_a_at) / RFU CMKLR1 (11741424_a_at) / Fold change /veh CMKLR1 (11741424_a_at) / RFU LOC101060620 /// MAPK8IP1 (11723275_at) / Fold change /veh LOC101060620 /// MAPK8IP1 (11723275_at) / RFU SPTSSB (11747773_x_at) / Fold change /veh SPTSSB (11747773_x_at) / RFU PRSS12 (11739890_at) / Fold change /veh PRSS12 (11739890_at) / RFU BIN1 (11741810_x_at) / Fold change /veh BIN1 (11741810_x_at) / RFU WNT11 (11732464_a_at) / Fold change /veh WNT11 (11732464_a_at) / RFU C10orf10 (11716521_a_at) / Fold change /veh C10orf10 (11716521_a_at) / RFU C5orf56 (11738089_at) / Fold change /veh C5orf56 (11738089_at) / RFU CYB561 (11721691_x_at) / Fold change /veh CYB561 (11721691_x_at) / RFU ANKRD19P (11752326_a_at) / Fold change /veh ANKRD19P (11752326_a_at) / RFU OR2T12 /// OR2T33 /// OR2T8 (11738714_s_at) / Fold change /veh OR2T12 /// OR2T33 /// OR2T8 (11738714_s_at) / RFU VCAN (11748164_a_at) / Fold change /veh VCAN (11748164_a_at) / RFU JSRP1 (11732532_at) / Fold change /veh JSRP1 (11732532_at) / RFU KRTAP10-11 (11738290_x_at) / Fold change /veh KRTAP10-11 (11738290_x_at) / RFU MYO3A (11730013_a_at) / Fold change /veh MYO3A (11730013_a_at) / RFU EBF3 (11725865_a_at) / Fold change /veh EBF3 (11725865_a_at) / RFU CAMK2N1 (11719241_x_at) / Fold change /veh CAMK2N1 (11719241_x_at) / RFU C5orf56 (11738088_a_at) / Fold change /veh C5orf56 (11738088_a_at) / RFU OLFML3 (11715873_a_at) / Fold change /veh OLFML3 (11715873_a_at) / RFU LOC100653217 /// NTM (11731650_a_at) / Fold change /veh LOC100653217 /// NTM (11731650_a_at) / RFU MAPK11 (11762145_a_at) / Fold change /veh MAPK11 (11762145_a_at) / RFU FIZ1 (11724087_x_at) / Fold change /veh FIZ1 (11724087_x_at) / RFU OASL (11726364_x_at) / Fold change /veh OASL (11726364_x_at) / RFU SOX15 (11748057_x_at) / Fold change /veh SOX15 (11748057_x_at) / RFU CD79A (11719716_a_at) / Fold change /veh CD79A (11719716_a_at) / RFU HIST1H1D (11736915_at) / Fold change /veh HIST1H1D (11736915_at) / RFU CASKIN2 (11723855_a_at) / Fold change /veh CASKIN2 (11723855_a_at) / RFU LOC730098 (11760151_x_at) / Fold change /veh LOC730098 (11760151_x_at) / RFU OR4N2 (11742367_at) / Fold change /veh OR4N2 (11742367_at) / RFU PRRT2 (11749266_a_at) / Fold change /veh PRRT2 (11749266_a_at) / RFU SNX32 (11753110_a_at) / Fold change /veh SNX32 (11753110_a_at) / RFU CDHR5 (11726645_a_at) / Fold change /veh CDHR5 (11726645_a_at) / RFU RCAN1 (11760418_a_at) / Fold change /veh RCAN1 (11760418_a_at) / RFU FAM167A (11723789_a_at) / Fold change /veh FAM167A (11723789_a_at) / RFU FAM26E (11764081_at) / Fold change /veh FAM26E (11764081_at) / RFU ISYNA1 (11749810_s_at) / Fold change /veh ISYNA1 (11749810_s_at) / RFU ACY1 (11761880_at) / Fold change /veh ACY1 (11761880_at) / RFU 11764098_at / Fold change /veh 11764098_at / RFU SAMD14 (11745864_x_at) / Fold change /veh SAMD14 (11745864_x_at) / RFU NPB (11741838_a_at) / Fold change /veh NPB (11741838_a_at) / RFU TMPRSS6 (11731388_a_at) / Fold change /veh TMPRSS6 (11731388_a_at) / RFU KRTAP10-2 (11738614_at) / Fold change /veh KRTAP10-2 (11738614_at) / RFU ARHGAP8 /// PRR5-ARHGAP8 (11727945_x_at) / Fold change /veh ARHGAP8 /// PRR5-ARHGAP8 (11727945_x_at) / RFU KRTAP5-7 /// NADSYN1 (11734609_at) / Fold change /veh KRTAP5-7 /// NADSYN1 (11734609_at) / RFU RASL12 (11751679_a_at) / Fold change /veh RASL12 (11751679_a_at) / RFU CDKN2B (11736163_a_at) / Fold change /veh CDKN2B (11736163_a_at) / RFU PRF1 (11729649_at) / Fold change /veh PRF1 (11729649_at) / RFU, ZNF638 /// ZNF638-IT1 / Fold change vs veh, ZNF638 /// ZNF638-IT1 / RFU, PANK3 / Fold change vs veh, PANK3 / RFU, SH3YL1 / Fold change vs veh, SH3YL1 / RFU, ZEB2 / Fold change vs veh, ZEB2 / RFU, NRIP1 / Fold change vs veh, NRIP1 / RFU, PTTG1IP / Fold change vs veh, PTTG1IP / RFU, CAPN2 / Fold change vs veh, CAPN2 / RFU, MED14 / Fold change vs veh, MED14 / RFU, SNORA58 / Fold change vs veh, SNORA58 / RFU, C1orf63 / Fold change vs veh, C1orf63 / RFU, LRRFIP1 / Fold change vs veh, LRRFIP1 / RFU, NDUFAF7 / Fold change vs veh, NDUFAF7 / RFU, SLC12A2 / Fold change vs veh, SLC12A2 / RFU, IBTK / Fold change vs veh, IBTK / RFU, ESF1 / Fold change vs veh, ESF1 / Fold change vs veh, TMEM50B / RFU, TAOK1 / Fold change vs veh, TAOK1 / RFU, ACBD3 / Fold change vs veh, ACBD3 / RFU, TMA16 / Fold change vs veh, TMA16 / RFU, RWDD3 / Fold change vs veh, RWDD3 / RFU, BCAT1 / Fold change vs veh, BCAT1 / RFU, EDEM3 / Fold change vs veh, EDEM3 / RFU, TMEM33 / Fold change vs veh, TMEM33 / RFU, WDR75 / Fold change vs veh, WDR75 / RFU, AHCTF1 / Fold change vs veh, AHCTF1 / RFU, TFRC / Fold change vs veh, TFRC / RFU, ZDHHC17 / Fold change vs veh, ZDHHC17 / RFU, NOM1 / Fold change vs veh, NOM1 / RFU, ARL8B / Fold change vs veh, ARL8B / RFU, ZBTB11 / Fold change vs veh, ZBTB11 / RFU, TAMM41 / Fold change vs veh, TAMM41 / RFU, KIAA1704 /// LOC100996395 / Fold change vs veh, KIAA1704 /// LOC100996395 / RFU, ING1 / Fold change vs veh, ING1 / RFU, TRMT61B / Fold change vs veh, TRMT61B / RFU, FUBP3 / Fold change vs veh, FUBP3 / RFU, TP53 / Fold change vs veh, TP53 / RFU, TNKS2 / Fold change vs veh, TNKS2 / RFU, ZFP14 / Fold change vs veh, ZFP14 / RFU, ACTR2 / Fold change vs veh, ACTR2 / RFU, PPP3R1 / Fold change vs veh, PPP3R1 / RFU, PIK3R1 / Fold change vs veh, PIK3R1 / RFU, HNRNPA1 / Fold change vs veh, HNRNPA1 / RFU, RNF170 / Fold change vs veh, RNF170 / RFU, ZNF28 / Fold change vs veh, ZNF28 / RFU, RNGTT / Fold change vs veh, RNGTT / RFU, OGT / Fold change vs veh, OGT / RFU, BRD1 / Fold change vs veh, BRD1 / RFU, MARS / Fold change vs veh, MARS / RFU, ZNF655 / Fold change vs veh, ZNF655 / RFU, FAHD1 / Fold change vs veh, FAHD1 / RFU, BDP1 / Fold change vs veh, BDP1 / RFU, LRRCC1 / Fold change vs veh, LRRCC1 / RFU, ARID1A / Fold change vs veh, ARID1A / RFU, ZNF146 / Fold change vs veh, ZNF146 / RFU, ZNF330 / Fold change vs veh, ZNF330 / RFU, GPN3 / Fold change vs veh, GPN3 / RFU, C9orf123 / Fold change vs veh, C9orf123 / RFU, N4BP2L2 / Fold change vs veh, N4BP2L2 / RFU, ARFIP1 / Fold change vs veh, ARFIP1 / RFU, FAM179B / Fold change vs veh, FAM179B / RFU, BCL10 / Fold change vs veh, BCL10 / RFU, UHRF1BP1L / Fold change vs veh, UHRF1BP1L / RFU, BET1 / Fold change vs veh, BET1 / RFU, CNOT2 / Fold change vs veh, CNOT2 / RFU, ZNF268 / Fold change vs veh, ZNF268 / Fold change vs veh, ZNF507 / RFU, DGCR2 / Fold change vs veh, DGCR2 / RFU, WDSUB1 / Fold change vs veh, WDSUB1 / Fold change vs veh, HSP90B1 /// MIR3652 / RFU, ADSS / Fold change vs veh, ADSS / RFU, GK / Fold change vs veh, GK / RFU, ZNF148 / Fold change vs veh, ZNF148 / RFU, TAF9 / Fold change vs veh, TAF9 / RFU, SLC1A5 / Fold change vs veh, SLC1A5 / RFU, SLMO2 / Fold change vs veh, SLMO2 / RFU, ABCC4 / Fold change vs veh, ABCC4 / RFU, LOC101060439 /// RAP1B / Fold change vs veh, LOC101060439 /// RAP1B / RFU, RFX7 / Fold change vs veh, RFX7 / RFU, GTPBP10 / Fold change vs veh, GTPBP10 / RFU, CNEP1R1 / Fold change vs veh, CNEP1R1 / RFU, BIVM-ERCC5 /// ERCC5 / Fold change vs veh, BIVM-ERCC5 /// ERCC5 / RFU, ILF3 / Fold change vs veh, ILF3 / RFU 11762660_at / Fold change /veh 11762660_at / RFU VCAN (11757783_s_at) / Fold change /veh VCAN (11757783_s_at) / RFU DDX43 (11728927_at) / Fold change /veh DDX43 (11728927_at) / RFU KRT8 (11758188_x_at) / Fold change /veh KRT8 (11758188_x_at) / RFU NKD1 (11759106_at) / Fold change /veh NKD1 (11759106_at) / RFU SRD5A1 (11742802_a_at) / Fold change /veh SRD5A1 (11742802_a_at) / RFU TPSAB1 /// TPSB2 (11721975_s_at) / Fold change /veh TPSAB1 /// TPSB2 (11721975_s_at) / RFU GSTM3 (11746129_a_at) / Fold change /veh GSTM3 (11746129_a_at) / RFU IL23R (11737362_x_at) / Fold change /veh IL23R (11737362_x_at) / RFU TMEM51 (11727254_a_at) / Fold change /veh TMEM51 (11727254_a_at) / RFU PIWIL2 (11732686_x_at) / Fold change /veh PIWIL2 (11732686_x_at) / RFU ORM1 (11744905_x_at) / Fold change /veh ORM1 (11744905_x_at) / RFU CCDC152 (11743942_at) / Fold change /veh CCDC152 (11743942_at) / RFU ECM1 (11717891_a_at) / Fold change /veh ECM1 (11717891_a_at) / RFU IL23R (11748794_a_at) / Fold change /veh IL23R (11748794_a_at) / RFU TNFAIP8L3 (11732012_x_at) / Fold change /veh TNFAIP8L3 (11732012_x_at) / RFU MBOAT4 (11741988_at) / Fold change /veh MBOAT4 (11741988_at) / RFU 11764193_at / Fold change /veh 11764193_at / RFU TMEM53 (11763286_at) / Fold change /veh TMEM53 (11763286_at) / RFU MAGEB2 (11727129_at) / Fold change /veh MAGEB2 (11727129_at) / RFU TMEM200A (11744735_a_at) / Fold change /veh TMEM200A (11744735_a_at) / RFU CCDC152 (11751479_a_at) / Fold change /veh CCDC152 (11751479_a_at) / RFU FAM211A (11726209_a_at) / Fold change /veh FAM211A (11726209_a_at) / RFU RGS16 (11746705_a_at) / Fold change /veh RGS16 (11746705_a_at) / RFU VCAN (11755009_s_at) / Fold change /veh VCAN (11755009_s_at) / RFU RHOB (11743442_s_at) / Fold change /veh RHOB (11743442_s_at) / RFU RGS16 (11720943_a_at) / Fold change /veh RGS16 (11720943_a_at) / RFU RGS16 (11720944_at) / Fold change /veh RGS16 (11720944_at) / RFU, VPS4B / Fold change vs veh, VPS4B / RFU, CREB1 / Fold change vs veh, CREB1 / RFU, DNAJC13 / Fold change vs veh, DNAJC13 / RFU, GNAQ / Fold change vs veh, GNAQ / RFU, CDK5R1 / Fold change vs veh, CDK5R1 / RFU, ZRANB3 / Fold change vs veh, ZRANB3 / RFU, CUL4A / Fold change vs veh, CUL4A / RFU, CCNY / Fold change vs veh, CCNY / RFU, UFL1 / Fold change vs veh, UFL1 / RFU, COG3 / Fold change vs veh, COG3 / RFU, DIAPH2 / Fold change vs veh, DIAPH2 / RFU, SKA2 / Fold change vs veh, SKA2 / RFU, AFF3 / Fold change vs veh, AFF3 / RFU, LMF1 / Fold change vs veh, LMF1 / RFU, IPO11 / Fold change vs veh, IPO11 / RFU, DFFB / Fold change vs veh, DFFB / RFU, FOXP1 / Fold change vs veh, FOXP1 / RFU, CARD8 / Fold change vs veh, CARD8 / RFU, STRN3 / Fold change vs veh, STRN3 / RFU, ADK / Fold change vs veh, ADK / RFU, RASSF2 / Fold change vs veh, RASSF2 / RFU, WIPF1 / Fold change vs veh, WIPF1 / RFU, LARP1B / Fold change vs veh, LARP1B / RFU, RASA1 / Fold change vs veh, RASA1 / RFU, RB1 / Fold change vs veh, RB1 / RFU, PPFIA1 / Fold change vs veh, PPFIA1 / RFU, MAT2A / Fold change vs veh, MAT2A / RFU, CCT5 / Fold change vs veh, CCT5 / RFU, WDR92 / Fold change vs veh, WDR92 / RFU, CUX1 / Fold change vs veh, CUX1 / RFU, TTC7A / Fold change vs veh, TTC7A / RFU, TMEM135 / Fold change vs veh, TMEM135 / RFU, DEPTOR / Fold change vs veh, DEPTOR / RFU, CPM / Fold change vs veh, CPM / RFU, DNAJB6 / Fold change vs veh, DNAJB6 / RFU, CACNA2D3 / Fold change vs veh, CACNA2D3 / RFU, DTX4 / Fold change vs veh, DTX4 / RFU, TFCP2 / Fold change vs veh, TFCP2 / RFU, GMCL1 /// GMCL1P1 / Fold change vs veh, GMCL1 /// GMCL1P1 / RFU, AEBP2 / Fold change vs veh, AEBP2 / RFU, SNHG1 /// SNORD22 /// SNORD25 /// SNORD26 /// SNORD27 /// SNORD28 /// SNORD29 /// SNORD31 / Fold change vs veh, SNHG1 /// SNORD22 /// SNORD25 /// SNORD26 /// SNORD27 /// SNORD28 /// SNORD29 /// SNORD31 / Fold change (Aza/veh), C12orf56 (ProbeSet 11735607_a_at) / Fold change (ACY-1035/veh), C12orf56 (ProbeSet 11735607_a_at) / Fold change (Aza/veh), FGFR1OP (ProbeSet 11751329_s_at) / Fold change (ACY-1035/veh), FGFR1OP (ProbeSet 11751329_s_at) / Fold change (Aza/veh), VPS36 (ProbeSet 11739960_a_at) / Fold change (ACY-1035/veh), VPS36 (ProbeSet 11739960_a_at) / RFU SYPL1 (11715823_x_at) / Fold change /veh SYPL1 (11715823_x_at) / RFU IGFBP7 (11715501_s_at) / Fold change /veh IGFBP7 (11715501_s_at) / RFU REEP3 (11722064_at) / Fold change /veh REEP3 (11722064_at) / RFU IGLL1 (11728026_x_at) / Fold change /veh IGLL1 (11728026_x_at): dose or concentration left out as unconfirmed
# Settings: MV-4-11 cells, 48 hours
smiles,measurement,value
Nc1ccc(-c2cccs2)cc1NC(=O)c1ccc2c(c1)cc(C1CC1)n2CCN1CCOCC1 [ACY-1035],RFU WNT11 (11732464_a_at),8.64 RFU
